# Tests used:
# [1] = target: T1, GATOR2-Sestrin2 interaction (Homo sapiens, UniProt P58004); test: Sestrin2-GATOR2 interaction in HEK-293T cells after starvation/restimulation (co-immunoprecipitation); format: cell-based
# T1 construct: To isolate the FLAG-WDR24/endogenous-Sestrin2 complex; endogenous in cells; host or cells: HEK-293T cells stably expressing FLAG-WDR24; Sestrin2 and the other GATOR2 subunits are endogenous
# T1 sequence (P58004 1-480): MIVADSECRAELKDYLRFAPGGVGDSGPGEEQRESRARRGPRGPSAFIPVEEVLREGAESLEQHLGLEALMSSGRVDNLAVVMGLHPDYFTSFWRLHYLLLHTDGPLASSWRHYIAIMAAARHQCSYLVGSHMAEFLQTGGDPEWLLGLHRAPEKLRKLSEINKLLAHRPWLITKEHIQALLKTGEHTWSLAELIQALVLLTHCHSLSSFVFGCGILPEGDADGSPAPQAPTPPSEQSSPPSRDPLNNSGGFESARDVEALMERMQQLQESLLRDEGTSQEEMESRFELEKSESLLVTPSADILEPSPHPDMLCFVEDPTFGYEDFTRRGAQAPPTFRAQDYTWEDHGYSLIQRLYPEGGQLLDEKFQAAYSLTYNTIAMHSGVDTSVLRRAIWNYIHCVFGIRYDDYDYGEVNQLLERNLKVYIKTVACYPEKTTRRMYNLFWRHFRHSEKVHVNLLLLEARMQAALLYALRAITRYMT
# Procedure: (§1) In order to determine the effect of amino acids on the GATOR2-Sestrin interaction, transfected cells were incubated in amino acid free RPMI for 50 minutes and then stimulated with amino acids for 10 minutes. For glucose starvation, cells were incubated in RPMI media lacking glucose but containing amino acids and dialyzed serum for 50 minutes, followed by a 10 minute restimulation with 5 mM D-Glucose. For insulin deprivation, cells were incubated in RPMI without serum for 50 minutes and restimulated with 1 μg/ml insulin for 10 minutes. Finally, when Torin1 or Rapamycin was used, cells were incubated with 250 nM of each throughout the starvation and restimulation period.
# HEK-293T cells stably expressing FLAG-WDR24 or the control protein FLAG-metap2 (as described in Example 1) were starved for leucine, arginine, or all amino acids for 50 minutes. In some samples, cells were re-stimulated with leucine, arginine, or all amino acids for 10 minutes and then FLAG immunoprecipitates prepared from cell lysates. Immunoprecipitates and lysates were analyzed by immunoblotting for indicated proteins. Removal of either leucine or arginine from the cell media inhibited mTORC1 signaling, as indicated by S6K1 phosphorylation, to similar extents. Strikingly, however, only leucine starvation caused Sestrin2 to bind to GATOR2 inducing the interaction as effectively as complete amino acid starvation (FIG. 9A). […] Leucine starvation and stimulation also strongly regulated the interaction of endogenous Sestrin1, but not endogenous Sestrin3, with GATOR2 (Figure not shown).
# [2] = target: T2, Sestrin-GATOR2 interaction (Homo sapiens, UniProt P58004); test: Effect of specific amino acids on Sestrin-GATOR2 interaction (FLAG-WDR24 immunoprecipitation, immunoblot); format: cell-based; settings: HEK-293T stably expressing FLAG-WDR24; starvation/restimulation, pre- or post-lysis addition, washes of immunoprecipitates
# T2 construct: To isolate the FLAG-WDR24/endogenous-Sestrin2 complex; endogenous in cells; host or cells: HEK-293T cells stably expressing FLAG-WDR24; Sestrin2 and the other GATOR2 subunits are endogenous
# T2 sequence (P58004 1-480): T1 sequence (P58004 1-480)
# Procedure: In order to further explore if specific amino acid levels affected the Sestrin-GATOR2 interaction, HEK-293T cells stably expressing the FLAG-tagged GATOR2 component WDR24 (and FLAG-tagged metap2 as a control) were starved of either all amino acids (ALL); only leucine, arginine, and lysine (LRK); only leucine (L); only arginine (R); or only lysine (K) for 50 minutes, or starved for 50 minutes and restimulated for 10 minutes with the indicated amino acids.
# HEK-293T cells stably expressing the FLAG-tagged GATOR2 component WDR24 were starved of all amino acids for 50 minutes. Individual amino acids were added pre-lysis to the cell culture media or post-lysis to cell lysates prior to FLAG immunoprecipitation.
# Finally, HEK-293T cells stably expressing the FLAG-tagged GATOR2 component WDR24 were starved of all amino acids for 50 minutes. Immunoprecipitates were subjected to washes containing the indicated amounts of leucine or arginine and analyzed along with cell lysates by immunoblotting for the indicated proteins as shown in FIG. 8C.
# [3] = target: T3, Sestrin2 (Homo sapiens, UniProt P58004); test: [3H]-labeled amino acid binding to FLAG-Sestrin2 immunoprecipitated from HEK-293T cells; settings: for Ki: 10 μM 3H-leucine, three experiments, read-out: inhibitory constant (Ki) for competing leucine binding to Sestrin2; for affinity for Sestrin2, times lower than the affinity of leucine: relative to leucine Kd
# T3 construct: expressed in transfected cells; host or cells: HEK-293T, transient transfection of a pRK5-based cDNA plasmid, anti-FLAG immunoprecipitation
# T3 sequence (P58004 1-480): T1 sequence (P58004 1-480)
# Procedure: Four million HEK-293T cells were plated in a 15 cm plate four days prior to the experiment. Each plate yielded the protein for one sample. Forty-eight hours after plating, the cells were transfected via the polyethylenimine method (O. Boussif et al., PNAS (USA), 92:7297-7301 (1995)) with the pRK5-based cDNA expression plasmids indicated in the figures in the following amounts: 5 μgFLAG-Sestrin2; 12 μg of the negative control Rap2A; 5 μg WDR24; 2 μg WDR24 with 4 μg each of HA-Seh1L, HA-Sec13, HA-Mios, and HA-WDR59; 12 […] (CG11299-PD); 12 μgFLAG-Sestrin1.1; 12 μg FLAG-Sestrin1.2; 12 μg FLAG-Sestrin3; 12 μg FLAG-Sestrin2 mutants (L261A, E451A, S190A) and up to 20 μg total DNA with empty-PRK5. Forty-eight hours after transfection cells were lysed as described in Example 1. If multiple samples of the same type were represented in the experiment, the cell lysates were combined, mixed, and evenly distributed amongst the relevant tubes, to ensure equal protein amounts across samples of the same type.
# Anti-FLAG immunoprecipitates were prepared as previously described, with the exception that, prior to incubation with lysates, the beads were blocked by rotating in 1 μg/μl bovine serum albumin (BSA) for 20 minutes at 4° C. and subsequently washed twice in lysis buffer. Thirty μl of the 50/50 slurry of beads in lysis buffer was added to each of the clarified cell lysates and incubated as previously described in Example 1.
# For the binding assays, two tubes at a time were washed as previously indicated for immunoprecipitations. All the liquid was subsequently aspirated and a 15 μl aliquot of proteins bound to the beads was incubated for one hour on ice in cytosolic buffer (0.1% Triton, 40 mM HEPES pH 7.4, 10 mM NaCl, 150 mM KCl, 2.5 mM MgCl2) with the appropriate amount of [^3H]-labeled amino acids and unlabeled amino acids. Tubes were flicked every five minutes. At the end of one hour, the beads were briefly spun down, aspirated dry, and rapidly washed three times with binding wash buffer (0.1% Triton, 40 mM HEPES pH 7.4, 150 mM NaCl). The beads were aspirated dry again and resuspended in 85 μl of binding wash buffer. With a cut tip, each sample was mixed well and three 10 μl aliquots were separately quantified using a TriCarb® scintillation counter (PerkinElmer). This process was repeated in pairs for each sample, to ensure similar incubation and wash times for all samples analyzed across different experiments.
# Amino acid affinities to Sestrin2 were determined by first normalizing the bound [^3H]-labeled amino acid concentrations across three separate binding assays performed with varying amounts of unlabeled amino acid competition. These values were plotted and fit to a hyperbolic equation ([…]) to estimate the IC50 value. Kd or Ki values were derived from the IC50 value using the equation: Kd or Ki=IC50/(1+([[^3H]Leucine])/Kd).
# [4] = tested on: mTORC1; test: mTORC1 signaling in HEK-293T cells (S6K1 phosphorylation immunoblot); format: cell-based, human; settings: v-ATPase inhibition
# Procedure: Immunoprecipitated proteins were denatured by the addition of 50 μl of sample buffer and boiling for 5 minutes as described (Kim et al., 2002), resolved by 8%-16% SDS-PAGE, and analyzed by immunoblotting using the appropriate antibody (antibodies to phospho-T389 S6K1, S6K1, Sestrin2, mTOR, Mios and FLAG all obtained from Cell Signaling Technology; antibodies to WDR24 and WDR59 were generously provided by Jianxin Xie at Cell Signaling Technology).
# as §1
# [5] = target: T4, Sestrin2-GATOR2 complex (Homo sapiens, UniProt P58004); test: Amino acids added directly to immunopurified Sestrin2-GATOR2 complexes (immunoblot); format: binding; settings: for effect on the Sestrin2-GATOR2 interaction in vitro: 300 μM each, added directly to FLAG immunoprecipitates; for concentration acting on Sestrin2-GATOR2 complex, fold greater than leucine: added to purified complexes, relative to leucine
# T4 construct: To isolate the FLAG-WDR24/endogenous-Sestrin2 complex; endogenous in cells; host or cells: HEK-293T cells stably expressing FLAG-WDR24; Sestrin2 and the other GATOR2 subunits are endogenous
# T4 sequence (P58004 1-480): T1 sequence (P58004 1-480)
# Procedure: We next tested if leucine acts directly on the Sestrin2-GATOR2 complex.
# HEK-293T cells stably expressing FLAG-WDR24 were starved for all amino acids for 50 minutes, lysed and subjected to anti-FLAG immunoprecipitation as described previously. The GATOR2-Sestrin2 complexes immobilized on the agarose beads were washed twice in lysis buffer with 500 mM NaCl, as previously described, and then incubated for 10 minutes in 1 mL of cytosolic buffer with the indicated concentrations of individual amino acids. The amount of GATOR2 and Sestrin2 that remained bound was assayed by SDS-PAGE and immunoblotting as described previously.
compound,measurement,setting,value
CCC(=O)N1CCN(c2ccc(-n3c(=O)ccc4cnc5ccc(-c6cnc7ccccc7c6)cc5c43)cc2C(F)(F)F)CC1 [Torin1],effect of pretreatment on the amino acid-induced decrease in the GATOR2-Sestrin2 interaction,[1]; 250 nM throughout starvation and restimulation,did not prevent the amino acid-induced decrease in the GATOR2-Sestrin2 interaction
N=C(N)NCCC[C@H](N)C(=O)O [arginine],disruption of the Sestrin-GATOR2 interaction,[2],"but not arginine or lysine, disrupts the Sestrin-GATOR2 interaction"
same,binding of radiolabeled amino acid to Sestrin2,"[3]; FLAG-Sestrin2 from HEK-293T, competed by excess unlabeled leucine",did not bind
C/C=C/[C@H]1O[C@@](O)([C@@H](C)[C@H](O)[C@H](C)[C@H]2OC(=O)/C(OC)=C/C(C)=C/[C@@H](C)[C@@H](O)[C@@H](CC)[C@@H](O)[C@H](C)C/C(C)=C/C=C/[C@@H]2OC)C[C@@H](O[C@H]2C[C@@H](O)[C@H](OC(N)=O)[C@@H](C)O2)[C@@H]1C [concanamycin A],effect on the interaction between Sestrin2 and GATOR2,[1]; in the absence of amino acids,reduced the interaction between Sestrin2 and GATOR2
same,effect on mTORC1 signaling,[4],decreased mTORC1 signaling
CC[C@H](C)[C@H](N)C(=O)O [isoleucine],effect on the Sestrin2-GATOR2 interaction in vitro,[5],had any effect on the Sestrin2-GATOR2 interaction
same,"concentration acting on Sestrin2-GATOR2 complex, fold greater than leucine",[5],~25 fold
same,Ki,[3],616 ± 273 µM
same,"affinity for Sestrin2, times lower than the affinity of leucine",[3],~30 times
NCCCC[C@H](N)C(=O)O [lysine],disruption of the Sestrin-GATOR2 interaction,[2],"but not arginine or lysine, disrupts the Sestrin-GATOR2 interaction"
CSCC[C@H](N)C(=O)O [methionine],effect on the Sestrin2-GATOR2 interaction in vitro,[5],had any effect on the Sestrin2-GATOR2 interaction
same,"concentration acting on Sestrin2-GATOR2 complex, fold greater than leucine",[5],approximately 10 fold
same,Ki,[3],354 ± 118 µM
same,"affinity for Sestrin2, times lower than the affinity of leucine",[3],approximately 18 times
CC(C)[C@H](N)C(=O)O [valine],effect on the Sestrin2-GATOR2 interaction in vitro,[5],had any effect on the Sestrin2-GATOR2 interaction
insulin,regulation of the Sestrin2-GATOR2 interaction by insulin treatment,"[1]; serum-free 50 minutes, 1 μg/ml insulin 10 minutes",did not regulate the Sestrin2-GATOR2 interaction

# Source: patent US10168338B2, “Methods of identifying modulators of sestrin-gator-2 interaction for modulating mTORC1 activity” (Whitehead Institute for Biomedical Research, priority 2014, dated 2019)
